Test results from patent US20190223437A1, “ACTIVE COMPOUND COMBINATIONS COMPRISING A 5-SUBSTITUTED IMIDAZOLE DERIVATIVE” (BAYER CROPSCIENCE AKTIENGESELLSCHAFT, priority 2016, published 2019).
“And” between values parts separate entries of the source, which are not always exact repeats. Equal values may be shown once. Read-outs that look alike come from different tables or passages of the source.

How the values were obtained:
Sphaerotheca fuliginea = experiment: Example D: in vivo preventive test on Sphaerotheca test (cucumbers); conditions: compound alone
Alternaria alternata = experiment: Example F: in vitro-Test with Alternaria alternata; format: cell-based; conditions: compound alone, growth inhibition, photometric, 3-5 days after application
[1] = Example G: in vivo ecotoxicity screening test on fish (Danio rerio); conditions: Danio rerio, in vivo, other: exposure of embryos in water containing the compound
Method: (§1) with ECxi the Effect Concentration (EC) of each chemical i (in ppm) causing x % effect on the ecotoxicity test endpoint.
(§2) For each compound combination, the predicted ECx value is calculated. It is then compared to an experimentally measured value. The ratio of predicted versus measured effect for the combination (thereafter called the Model Deviation Ratio or MDR) is then calculated.
(§3) The environmental effect of the compound combinations was measured experimentally in laboratory ecotoxicity screening studies with fish (Danio rerio). […] Mortality was recorded after 48 h and 96 h for each tested concentration and a reference control. […] Then, the MDR values were calculated.
(§4) This concentrate is then diluted with water to the desired a.i. concentration, leading to a maximal solvent concentration of 0.5%. by weight The compounds alone and the combinations were tested for five increasing concentrations comprised between 0.01 and 1000 ppm (mg/1) a.i., (e.g. 0.1, 1.0, 10 and 100 ppm a.i). For the combinations, compounds A and B were mixed in a weight ratio of 5:1 to 1:5 and five increasing concentrations were tested for each ratio.

[2] = tested on: causal agent of apple scab (Venturia inaequalis); experiment: Example E: in vivo preventive test on Venturia test (apples); conditions: compound alone
[3] = tested on: causal agent of soybean rust (Phakopsora pachyrhizi); experiment: Example C: in vivo preventive test on Phakopsora test (soybeans); conditions: compound alone
Pyrenophora oryzae = experiment: Example F: in vitro-Test with Pyrenophora oryzae; format: cell-based; conditions: compound alone
Alternaria solani = experiment: Example A: in vivo preventive test on Alternaria test (tomatoes); conditions: compound alone, evaluated 3 days after inoculation
Method: (§5) The test is evaluated 3 days after the inoculation.

Colletotrichum coccodes = experiment: Example B: in vivo preventive test on Colletotrichum test (tomatoes); conditions: compound alone
Method: as §5

Pyricularia oryzae = format: cell-based; conditions: compound alone
Septoria tritici = experiment: Example F: in vitro-Test with Septoria tritici; format: cell-based; conditions: compound alone
[4] = tested on: fish (Danio rerio) embryos; experiment: Example G: in vivo ecotoxicity screening test on fish (Danio rerio); conditions: active compound alone, fish (D. rerio) embryos; for Ecotoxicity LC50-48 h found: mortality after 48 h; for Ecotoxicity LC50-96 h found: mortality after 96 h
Method: as §1, §2, §3, §4

Compound: CC(C)C1CCC(Cc2ccc(Cl)cc2)C1(O)Cn1cncn1 (stereo not drawn) [1.012 ipconazole]
- Efficacy in % found (Sphaerotheca fuliginea; 2.5 ppm a.i.): 0%
- Efficacy in % found (Sphaerotheca fuliginea; 5 ppm a.i.): 0%
- Efficacy in % found (Sphaerotheca fuliginea; 10 ppm a.i.): 0%

Compound: CCCN(CC)CC1COC2(CCC(C(C)(C)C)CC2)O1 (stereo not drawn) [1.020 spiroxamine, spiroxamine, reference compound]
- Efficacy in % found (Sphaerotheca fuliginea; 25 ppm a.i.): 0%
- Efficacy in % found (Sphaerotheca fuliginea; 50 ppm a.i.): 30%
- Efficacy in % found (Sphaerotheca fuliginea; 100 ppm a.i.): 40%
- Efficacy % (Alternaria alternata; 4 ppm): 13%
- Efficacy % (Alternaria alternata; 20 ppm): 5%
- Efficacy % (Alternaria alternata; 100 ppm): 66%
- LC50 at 48 h [1]: 16.5 µg/mL
- LC50 at 96 h [1]: 14.8 µg/mL

Compound: Cc1nn(C)c(F)c1C(=O)Nc1ccccc1C(C)CC(C)C (stereo not drawn) [2.017 penflufen]
- Efficacy in % found ([2]; 5 ppm a.i.): 18%
- Efficacy in % found ([2]; 10 ppm a.i.): 26%
- Efficacy in % found ([2]; 20 ppm a.i.): 23%
- Efficacy in % found ([3]; 5 ppm a.i.): 0%
- Efficacy in % found ([3]; 10 ppm a.i.): 8%
- Efficacy in % found ([3]; 20 ppm a.i.): 60%

Compound: CON=C(C(=O)OC)c1ccccc1CON=C(C)c1cccc(C(F)(F)F)c1 [3.020 trifloxystrobin]
- Efficacy % (Pyrenophora oryzae; 0.04 ppm): 0%
- Efficacy % (Pyrenophora oryzae; 0.2 ppm): 0%
- Efficacy % (Pyrenophora oryzae; 1 ppm): 0%

Compound: N#Cc1c(Cl)c(Cl)c(Cl)c(C#N)c1Cl [5.004 chlorothalonil, chlorothalonil]
- Efficacy in % found (Alternaria solani; 12.5 ppm a.i.): 0%
- Efficacy in % found (Alternaria solani; 25 ppm a.i.): 0%
- Efficacy in % found (Alternaria solani; 50 ppm a.i.): 15%
- Efficacy in % found (Colletotrichum coccodes; 12.5 ppm a.i.): 0%
- Efficacy in % found (Colletotrichum coccodes; 25 ppm a.i.): 0%
- Efficacy in % found (Colletotrichum coccodes; 50 ppm a.i.): 0%
- Efficacy in % found ([3]; 12.5 ppm a.i.): 0%
- Efficacy in % found ([3]; 25 ppm a.i.): 0%
- Efficacy in % found ([3]; 50 ppm a.i.): 30%

Compound: COCC(=O)N(c1c(C)cccc1C)[C@H](C)C(=O)OC [12.004 mefenoxam]
- Efficacy in % found (Colletotrichum coccodes; 50 ppm a.i.): 0%
- Efficacy in % found (Colletotrichum coccodes; 100 ppm a.i.): 8%
- Efficacy in % found (Colletotrichum coccodes; 200 ppm a.i.): 15%
- Efficacy % (Pyricularia oryzae; 20 ppm): 0%
- Efficacy % (Pyricularia oryzae; 100 ppm): 0%
- Efficacy % (Septoria tritici; 20 ppm): 28%
- Efficacy % (Septoria tritici; 100 ppm): 42%
- Efficacy in % found ([3]; 50 ppm a.i.): 0%
- Efficacy in % found ([3]; 100 ppm a.i.): 8%
- Efficacy in % found ([3]; 200 ppm a.i.): 0%

Compound: CCCOc1nc2ccc(I)cc2c(=O)n1CCC [13.004 proquinazid]
- Efficacy in % found (Sphaerotheca fuliginea; 25 ppm a.i.): 90%
- Efficacy in % found (Sphaerotheca fuliginea; 50 ppm a.i.): 100%
- Efficacy in % found (Sphaerotheca fuliginea; 100 ppm a.i.): 100%
- Efficacy % (Septoria tritici; 4 ppm): 0%
- Efficacy % (Septoria tritici; 20 ppm): 37% and 40%

Compound: O=C(Cc1ccccc1)N/C(=N\OCC1CC1)c1c(C(F)(F)F)ccc(F)c1F [15.008 cyflufenamid]
- Efficacy in % found ([2]; 1 ppm a.i.): 0%
- Efficacy in % found ([2]; 2 ppm a.i.): 0%
- Efficacy in % found ([2]; 4 ppm a.i.): 8%

Compound: CON=C(C(=O)OC)c1ccccc1CON=C(C)c1cccc(C(F)(F)F)c1 [15.047 trifloxystrobin]
- Efficacy % (Pyrenophora oryzae; 0.04 ppm): 17%
- Efficacy % (Pyrenophora oryzae; 0.2 ppm): 86%

Compound: Cc1nn(C)c(F)c1C(=O)Nc1ccccc1C(C)CC(C)C (stereo not drawn) [Example 2.017, penflufen]
- Ecotoxicity LC50-48 h found [4]: 1.74 ppm a.i.
- Ecotoxicity LC50-96 h found [4]: 0.62 ppm a.i.

Compound: CC1CC(C)(C)c2cccc(NC(=O)c3cn(C)nc3C(F)F)c21 (stereo not drawn) [Example 2.027, 3-(difluoromethyl)-1-methyl-N-(1,1,3-trimethyl-2,3-dihydro-1H-inden-4-yl)-1H-pyrazole-4-carboxamide, reference compound]
- Efficacy % (Pyrenophora oryzae; 0.8 ppm): 55%
- Efficacy % (Pyrenophora oryzae; 4 ppm): 81%
- LC50 at 48 h [1]: 1.85 µg/mL
- LC50 at 96 h [1]: 1.74 µg/mL
- Efficacy in % found ([2]; 1 ppm a.i.): 8%
- Efficacy in % found ([2]; 2 ppm a.i.): 8%
- Efficacy in % found ([2]; 4 ppm a.i.): 74%
- Efficacy in % found ([3]; 1 ppm a.i.): 15%
- Efficacy in % found ([3]; 2 ppm a.i.): 85%
- Efficacy in % found ([3]; 4 ppm a.i.): 96%

Compound: COc1ccnc(C(=O)N[C@H]2COC(=O)[C@H](Cc3ccccc3)[C@@H](OC(=O)C(C)C)[C@H](C)OC2=O)c1OCOC(=O)C(C)C [Example 3.025, (3S,6S,7R,8R)-8-benzyl-3-[({3-[(isobutyryloxy)methoxy]-4-methoxypyridin-2-yl}carbonyl)amino]-6-methyl-4,9-dioxo-1,5-dioxonan-7-yl 2-methylpropanoate]
- Efficacy % (Pyrenophora oryzae; 4 ppm): 0%
- Efficacy % (Pyrenophora oryzae; 20 ppm): 0%
- LC50 at 48 h [1]: 2.31 µg/mL
- LC50 at 96 h [1]: 1.87 µg/mL
- Efficacy in % found ([3]; 5 ppm a.i.): 0%
- Efficacy in % found ([3]; 10 ppm a.i.): 30%
- Efficacy in % found ([3]; 20 ppm a.i.): 35%

Compound: N#Cc1cncn1CC(O)(Cc1ccccc1F)C1(Cl)CC1 (stereo not drawn) [Example I-34, 1-[2-(1-chlorocyclopropyl)-3-(2-fluorophenyl)-2-hydroxypropyl]-1H-imidazole-5-carbonitrile]
- Efficacy in % found (Alternaria solani; 1 ppm a.i.): 15%
- Efficacy in % found (Alternaria solani; 5 ppm a.i.): 45%
- Efficacy in % found (Colletotrichum coccodes; 1 ppm a.i.): 8%
- Efficacy in % found (Colletotrichum coccodes; 5 ppm a.i.): 60%
- Efficacy in % found (Sphaerotheca fuliginea; 1 ppm a.i.): 0%
- Efficacy in % found (Sphaerotheca fuliginea; 5 ppm a.i.): 0%
- Efficacy % (Pyrenophora oryzae; 0.008 ppm): 0%
- Efficacy % (Pyrenophora oryzae; 0.2 ppm): 0%
- Efficacy % (Septoria tritici; 0.008 ppm): 0%
- Efficacy % (Septoria tritici; 0.04 ppm): 28%
- Efficacy % (Septoria tritici; 0.2 ppm): 59%
- Efficacy % (Septoria tritici; 1 ppm): 68%
- LC50 at 48 h [1]: 35.6 µg/mL
- LC50 at 96 h [1]: 27.4 µg/mL
- Efficacy in % found ([2]; 1 ppm a.i.): 8%
- Efficacy in % found ([2]; 5 ppm a.i.): 66% and 68%
- Efficacy in % found ([3]; 1 ppm a.i.): 8% and 0%
- Efficacy in % found ([3]; 5 ppm a.i.): 93% and 88%

Compound: N#Cc1cncn1CC(O)(Cc1cccc(Cl)c1F)C1(Cl)CC1 (stereo not drawn) [Example I-145, 1-[3-(3-chloro-2-fluorophenyl)-2-(1-chlorocyclopropyl)-2-hydroxypropyl]-1H-imidazole-5-carbonitrile]
- Efficacy in % found (Alternaria solani; 1 ppm a.i.): 8%
- Efficacy in % found (Alternaria solani; 5 ppm a.i.): 40%
- Efficacy in % found (Colletotrichum coccodes; 1 ppm a.i.): 23%
- Efficacy in % found (Colletotrichum coccodes; 5 ppm a.i.): 75%
- Efficacy in % found (Sphaerotheca fuliginea; 1 ppm a.i.): 0%
- Efficacy in % found (Sphaerotheca fuliginea; 5 ppm a.i.): 0%
- Efficacy % (Alternaria alternata; 0.008 ppm): 0%
- Efficacy % (Alternaria alternata; 0.04 ppm): 0% and 2%
- Efficacy % (Alternaria alternata; 0.2 ppm): 32%
- Efficacy % (Alternaria alternata; 1 ppm): 1%
- Efficacy % (Pyricularia oryzae; 0.2 ppm): 84%
- Efficacy % (Pyricularia oryzae; 1 ppm): 87%
- Efficacy % (Pyrenophora oryzae; 0.008 ppm): 0%
- Efficacy % (Pyrenophora oryzae; 0.04 ppm): 0%
- Efficacy % (Septoria tritici; 0.008 ppm): 29%
- Efficacy % (Septoria tritici; 0.04 ppm): 25%
- Efficacy % (Septoria tritici; 0.2 ppm): 51%
- Efficacy % (Septoria tritici; 1 ppm): 63%
- LC50 at 48 h [1]: 28.2 µg/mL
- LC50 at 96 h [1]: 13.4 µg/mL
- Efficacy in % found ([2]; 1 ppm a.i.): 0%
- Efficacy in % found ([2]; 5 ppm a.i.): 66%
- Efficacy in % found ([3]; 1 ppm a.i.): 0%
- Efficacy in % found ([3]; 5 ppm a.i.): 45%

Compound: mancozeb [5.013 mancozeb]
- Efficacy in % found (Alternaria solani; 12.5 ppm a.i.): 8%
- Efficacy in % found (Alternaria solani; 25 ppm a.i.): 10%
- Efficacy in % found (Alternaria solani; 50 ppm a.i.): 85%
- Efficacy in % found (Colletotrichum coccodes; 12.5 ppm a.i.): 0%
- Efficacy in % found (Colletotrichum coccodes; 25 ppm a.i.): 0%
- Efficacy in % found (Colletotrichum coccodes; 50 ppm a.i.): 8%
- Efficacy % (Alternaria alternata; 0.8 ppm): 51%
- Efficacy % (Alternaria alternata; 4 ppm): 78%
- Efficacy in % found ([2]; 5 ppm a.i.): 15%
- Efficacy in % found ([2]; 10 ppm a.i.): 49%
- Efficacy in % found ([2]; 20 ppm a.i.): 95%
- Efficacy in % found ([3]; 12.5 ppm a.i.): 0%
- Efficacy in % found ([3]; 25 ppm a.i.): 15%
- Efficacy in % found ([3]; 50 ppm a.i.): 80%

Compound: metalaxyl [12.003 metalaxyl]
- Efficacy in % found (Alternaria solani; 50 ppm a.i.): 8%
- Efficacy in % found (Alternaria solani; 100 ppm a.i.): 8%
- Efficacy in % found (Alternaria solani; 200 ppm a.i.): 30%
- Efficacy in % found (Colletotrichum coccodes; 50 ppm a.i.): 0%
- Efficacy in % found (Colletotrichum coccodes; 100 ppm a.i.): 0%
- Efficacy in % found (Colletotrichum coccodes; 200 ppm a.i.): 8%
- Efficacy % (Pyricularia oryzae; 20 ppm): 0%
- Efficacy % (Pyricularia oryzae; 100 ppm): 5%
- Efficacy % (Septoria tritici; 20 ppm): 43%
- Efficacy % (Septoria tritici; 100 ppm): 31%
- Ecotoxicity LC50-48 h found [4]: >200 ppm a.i.
- Ecotoxicity LC50-96 h found [4]: >200 ppm a.i.
- Efficacy in % found ([3]; 50 ppm a.i.): 0%
- Efficacy in % found ([3]; 100 ppm a.i.): 0%
- Efficacy in % found ([3]; 200 ppm a.i.): 20%

Compound: metalaxyl-M (mefenoxam) [Example 12.004]
- Ecotoxicity LC50-48 h found [4]: >200 ppm a.i.
- Ecotoxicity LC50-96 h found [4]: >200 ppm a.i.

Compound: propineb [5.018 propineb]
- Efficacy in % found (Alternaria solani; 12.5 ppm a.i.): 0%
- Efficacy in % found (Alternaria solani; 25 ppm a.i.): 8%
- Efficacy in % found (Alternaria solani; 50 ppm a.i.): 50%
- Efficacy in % found ([3]; 12.5 ppm a.i.): 0%
- Efficacy in % found ([3]; 25 ppm a.i.): 0%
- Efficacy in % found ([3]; 50 ppm a.i.): 40%
